From ChEMBL document CHEMBL3804786, “Novel 1,3-thiazolidin-4-one derivatives as promising anti-Candida agents endowed with anti-oxidant and chelating properties” (Eur J Med Chem, 2016)
Values after ≈ are worked out from the molar mass of the structure shown.

Experiments:
Staphylococcus aureus = experiment: Antibacterial activity against Staphylococcus aureus clinical isolate after 18 to 22 hrs by broth microdilution method; assay type: functional
Staphylococcus warneri = experiment: Antibacterial activity against Staphylococcus warneri clinical isolate after 18 to 22 hrs by broth microdilution method; assay type: functional
Enterococcus faecalis = experiment: Antibacterial activity against Streptococcus faecalis clinical isolate after 18 to 22 hrs by broth microdilution method; assay type: functional
Escherichia coli = experiment: Antibacterial activity against Escherichia coli after clinical isolate 18 to 22 hrs by broth microdilution method; assay type: functional
Proteus mirabilis = experiment: Antibacterial activity against Proteus mirabilis clinical isolate after 18 to 22 hrs by broth microdilution method; assay type: functional
Enterobacter sp. = experiment: Antibacterial activity against Enterobacter spp. clinical isolate after 18 to 22 hrs by broth microdilution method; assay type: functional
Klebsiella oxytoca = experiment: Antibacterial activity against Klebsiella oxytoca clinical isolate after 18 to 22 hrs by broth microdilution method; assay type: functional
Candida albicans = experiment: Antifungal activity against Candida albicans clinical isolate after 24 hrs by broth microdilution method; assay type: functional
Nakaseomyces glabratus = experiment: Antifungal activity against Candida glabrata clinical isolate after 24 hrs by broth microdilution method; assay type: functional
Candida tropicalis = experiment: Antifungal activity against Candida tropicalis clinical isolate after 24 hrs by broth microdilution method; assay type: functional
Pichia kudriavzevii = experiment: Antifungal activity against Candida krusei clinical isolate after 24 hrs by broth microdilution method; assay type: functional
Candida parapsilosis = experiment: Antifungal activity against Candida parapsilosis clinical isolate after 24 hrs by broth microdilution method; assay type: functional; settings: Lodderomyces parapsilosis
[Candida] sake = Antifungal activity against Candida sake clinical isolate after 24 hrs by broth microdilution method; assay type: functional; settings: Fermentozyma sake
[1] = test system: Streptococcus sp. (viridans group); experiment: Antibacterial activity against Streptococcus alpha-hemolyticus clinical isolate after 18 to 22 hrs by broth microdilution method

SMILES | MIC (Staphylococcus aureus) | MIC (Staphylococcus warneri) | MIC (Enterococcus faecalis) | MIC (Escherichia coli) | MIC (Proteus mirabilis) | MIC (Enterobacter sp.) | MIC (Klebsiella oxytoca) | MIC (Candida albicans) | MIC (Nakaseomyces glabratus) | MIC (Candida tropicalis) | MIC (Pichia kudriavzevii) | MIC (Candida parapsilosis) | MIC ([Candida] sake) | MIC [1]
C/C(=N\N=C1/SCC(=O)N1Cc1ccccc1Cl)c1ccccn1 | > 256 µg/mL | > 256 µg/mL | > 256 µg/mL | > 256 µg/mL | > 256 µg/mL | > 256 µg/mL | > 256 µg/mL | 4 µg/mL (≈ 11.1 µM) | 4 µg/mL (≈ 11.1 µM) | 2 µg/mL (≈ 5.57 µM) | 4 µg/mL (≈ 11.1 µM) | 8 µg/mL (≈ 22.3 µM) | 4 µg/mL (≈ 11.1 µM) | > 256 µg/mL
C/C(=N/N=C1\SCC(=O)N1Cc1ccccc1[N+](=O)[O-])c1ccccn1 | > 256 µg/mL | > 256 µg/mL | > 256 µg/mL | > 256 µg/mL | > 256 µg/mL | > 256 µg/mL | > 256 µg/mL | 2 µg/mL (≈ 5.41 µM) | 2 µg/mL (≈ 5.41 µM) | 4 µg/mL (≈ 10.8 µM) | 4 µg/mL (≈ 10.8 µM) | 16 µg/mL (≈ 43.3 µM) | 2 µg/mL (≈ 5.41 µM) | > 256 µg/mL
C/C(=N/N=C1\SCC(=O)N1Cc1ccc(N)cc1)c1cccs1 | > 256 µg/mL | > 256 µg/mL | > 256 µg/mL | > 256 µg/mL | > 256 µg/mL | > 256 µg/mL | > 256 µg/mL | 4 µg/mL (≈ 11.6 µM) | 8 µg/mL (≈ 23.2 µM) | 2 µg/mL (≈ 5.81 µM) | 8 µg/mL (≈ 23.2 µM) | 8 µg/mL (≈ 23.2 µM) | 2 µg/mL (≈ 5.81 µM) | > 256 µg/mL
O=C1CS/C(=N\N=C2CCCC2)N1Cc1ccccc1Cl | > 256 µg/mL | > 256 µg/mL | > 256 µg/mL | > 256 µg/mL | > 256 µg/mL | > 256 µg/mL | > 256 µg/mL | 2 µg/mL (≈ 6.21 µM) | 4 µg/mL (≈ 12.4 µM) | 4 µg/mL (≈ 12.4 µM) | 8 µg/mL (≈ 24.9 µM) | 8 µg/mL (≈ 24.9 µM) | 2 µg/mL (≈ 6.21 µM) | > 256 µg/mL
O=C1CS/C(=N\N=C2CCCC2)N1Cc1cccc(F)c1 | > 256 µg/mL | > 256 µg/mL | > 256 µg/mL | > 256 µg/mL | > 256 µg/mL | > 256 µg/mL | > 256 µg/mL | 4 µg/mL (≈ 13.1 µM) | 2 µg/mL (≈ 6.55 µM) | 16 µg/mL (≈ 52.4 µM) | 2 µg/mL (≈ 6.55 µM) | 4 µg/mL (≈ 13.1 µM) | 8 µg/mL (≈ 26.2 µM) | > 256 µg/mL
O=C1CS/C(=N\N=C2CCCC2)N1Cc1cccc(Cl)c1 | > 256 µg/mL | > 256 µg/mL | > 256 µg/mL | > 256 µg/mL | > 256 µg/mL | > 256 µg/mL | > 256 µg/mL | 4 µg/mL (≈ 12.4 µM) | 4 µg/mL (≈ 12.4 µM) | 8 µg/mL (≈ 24.9 µM) | 16 µg/mL (≈ 49.7 µM) | 4 µg/mL (≈ 12.4 µM) | 2 µg/mL (≈ 6.21 µM) | > 256 µg/mL
C/C(=N\N=C1/SCC(=O)N1Cc1ccccc1F)c1ccccn1 | > 256 µg/mL | > 256 µg/mL | > 256 µg/mL | > 256 µg/mL | > 256 µg/mL | > 256 µg/mL | > 256 µg/mL | 4 µg/mL (≈ 11.7 µM) | 8 µg/mL (≈ 23.4 µM) | 4 µg/mL (≈ 11.7 µM) | 4 µg/mL (≈ 11.7 µM) | 4 µg/mL (≈ 11.7 µM) | 8 µg/mL (≈ 23.4 µM) | > 256 µg/mL
C/C(=N\N=C1/SCC(=O)N1Cc1cccc(F)c1)c1ccccn1 | > 256 µg/mL | > 256 µg/mL | > 256 µg/mL | > 256 µg/mL | > 256 µg/mL | > 256 µg/mL | > 256 µg/mL | 2 µg/mL (≈ 5.84 µM) | 2 µg/mL (≈ 5.84 µM) | 8 µg/mL (≈ 23.4 µM) | 8 µg/mL (≈ 23.4 µM) | 2 µg/mL (≈ 5.84 µM) | 4 µg/mL (≈ 11.7 µM) | > 256 µg/mL
O=C1CS/C(=N\N=C2CCCC2)N1Cc1ccccc1[N+](=O)[O-] | > 256 µg/mL | > 256 µg/mL | > 256 µg/mL | > 256 µg/mL | > 256 µg/mL | > 256 µg/mL | > 256 µg/mL | 4 µg/mL (≈ 12 µM) | 2 µg/mL (≈ 6.02 µM) | 8 µg/mL (≈ 24.1 µM) | 4 µg/mL (≈ 12 µM) | 16 µg/mL (≈ 48.1 µM) | 4 µg/mL (≈ 12 µM) | > 256 µg/mL
CC(C)=N/N=C1\SCC(=O)N1Cc1ccccc1Cl | > 256 µg/mL | > 256 µg/mL | > 256 µg/mL | > 256 µg/mL | > 256 µg/mL | > 256 µg/mL | > 256 µg/mL | 2 µg/mL (≈ 6.76 µM) | 2 µg/mL (≈ 6.76 µM) | 16 µg/mL (≈ 54.1 µM) | 8 µg/mL (≈ 27 µM) | 8 µg/mL (≈ 27 µM) | 2 µg/mL (≈ 6.76 µM) | > 256 µg/mL
CC(C)=N/N=C1\SCC(=O)N1Cc1ccc(Cl)cc1 | > 256 µg/mL | > 256 µg/mL | > 256 µg/mL | > 256 µg/mL | > 256 µg/mL | > 256 µg/mL | > 256 µg/mL | 4 µg/mL (≈ 13.5 µM) | 2 µg/mL (≈ 6.76 µM) | 8 µg/mL (≈ 27 µM) | 8 µg/mL (≈ 27 µM) | 2 µg/mL (≈ 6.76 µM) | 4 µg/mL (≈ 13.5 µM) | > 256 µg/mL
OC(Cn1cncn1)(Cn1cncn1)c1ccc(F)cc1F [FLUCONAZOLE] | – | – | – | – | – | – | – | 2 µg/mL (≈ 6.53 µM) | 2 µg/mL (≈ 6.53 µM) | 2 µg/mL (≈ 6.53 µM) | 2 µg/mL (≈ 6.53 µM) | 2 µg/mL (≈ 6.53 µM) | 2 µg/mL (≈ 6.53 µM) | –
